Results from ChEMBL document CHEMBL3603734, “Design and biological evaluation of novel quinolone-based metronidazole derivatives as potent Cu(2+) mediated DNA-targeting antibacterial agents” (Bioorg Med Chem Lett, 2015).
Values after ≈ are worked out from the molar mass of the structure shown. Active and inactive are the calls of the source. No cut-off for these calls is given here.

How the values were obtained:
[1] = Cytotoxicity against MEF assessed as inhibition of cell proliferation at 10^2 umol/L after 72 hrs by MTT assay relative to control; type: cell-based; conditions: mouse, MEF cells
[2] = Cytotoxicity against MEF assessed as inhibition of cell proliferation at 10^-1 umol/L after 72 hrs by MTT assay relative to control; type: cell-based; conditions: mouse, MEF cells
Bacillus spizizenii = assay: Antibacterial activity against Bacillus subtilis ATCC 6633 after 24 hrs by microbroth dilution method; type: functional; conditions: ATCC 6633, 24 h
[3] = Cytotoxicity against MEF assessed as inhibition of cell proliferation at 3 umol/L after 72 hrs by MTT assay relative to control; type: cell-based; conditions: mouse, MEF cells
Bacillus = assay: Antibacterial activity against Bacillus proteus ATCC 13315 after 24 hrs by microbroth dilution method; type: functional; conditions: ATCC 13315, 24 h
[4] = Cytotoxicity against mouse C2C12 cells assessed as inhibition of cell proliferation at 3 x 10^2 umol/L after 72 hrs by MTT assay relative to control; type: cell-based
[5] = Cytotoxicity against HEK293 cells assessed as inhibition of cell proliferation at 10^2 umol/L after 72 hrs by MTT assay relative to control; type: cell-based; conditions: human
[6] = Cytotoxicity against MEF assessed as inhibition of cell proliferation at 1 umol/L after 72 hrs by MTT assay relative to control; type: cell-based; conditions: mouse, MEF cells
[7] = Cytotoxicity against HEK293 cells assessed as inhibition of cell proliferation at 3 x 10^-2 umol/L after 72 hrs by MTT assay relative to control; type: cell-based; conditions: human
[8] = Cytotoxicity against HEK293 cells assessed as inhibition of cell proliferation at 10^-2 umol/L after 72 hrs by MTT assay relative to control; type: cell-based; conditions: human
[9] = Cytotoxicity against HEK293 cells assessed as inhibition of cell proliferation at 1 umol/L after 72 hrs by MTT assay relative to control; type: cell-based; conditions: human
[10] = Cytotoxicity against mouse C2C12 cells assessed as inhibition of cell proliferation at 10^-2 umol/L after 72 hrs by MTT assay relative to control; type: cell-based
[11] = Ionization constant, pKa of the compound by UV spectroscopic analysis; type: physicochemical
[12] = Cytotoxicity against HEK293 cells assessed as inhibition of cell proliferation at 10^-1 umol/L after 72 hrs by MTT assay relative to control; type: cell-based; conditions: human
[13] = Cytotoxicity against HEK293 cells assessed as inhibition of cell proliferation at 10 umol/L after 72 hrs by MTT assay relative to control; type: cell-based; conditions: human
Escherichia coli = assay: Antibacterial activity against Escherichia coli JM109 after 24 hrs by microbroth dilution method; type: functional; conditions: JM109, 24 h
Pseudomonas aeruginosa [14] = assay: Binding affinity to Pseudomonas aeruginosa DNA by fluorescence spectroscopic analysis
[15] = Cytotoxicity against mouse C2C12 cells assessed as inhibition of cell proliferation at 10^2 umol/L after 72 hrs by MTT assay relative to control; type: cell-based
Pseudomonas aeruginosa [16] = assay: Binding affinity to Pseudomonas aeruginosa DNA assessed as 1:1 compound-DNA complex formation at 6 x 10^-6 mol/L by fluorescence spectroscopic analysis in presence of Cu2+
Micrococcus luteus = assay: Antibacterial activity against Micrococcus luteus ATCC 4698 after 24 hrs by microbroth dilution method; type: functional; conditions: NCTC 2665, 24 h
[17] = Cytotoxicity against MEF assessed as inhibition of cell proliferation at 10 umol/L after 72 hrs by MTT assay relative to control; type: cell-based; conditions: mouse, MEF cells
Pseudomonas aeruginosa [18] = assay: Binding affinity to Pseudomonas aeruginosa DNA assessed as Stem-Volmer quenching constant by fluorescence spectroscopic analysis in presence of KI
[19] = Cytotoxicity against mouse C2C12 cells assessed as inhibition of cell proliferation at 3 umol/L after 72 hrs by MTT assay relative to control; type: cell-based
Pseudomonas aeruginosa [20] = assay: Antibacterial activity against Pseudomonas aeruginosa ATCC 27853 after 24 hrs by microbroth dilution method; type: functional; conditions: ATCC 27853, 24 h
[21] = Cytotoxicity against MEF assessed as inhibition of cell proliferation at 3 x 10^2 umol/L after 72 hrs by MTT assay relative to control; type: cell-based; conditions: mouse, MEF cells
C2C12 = assay: Cytotoxicity against mouse C2C12 cells assessed as inhibition of cell proliferation after 72 hrs by MTT assay; type: cell-based; conditions: C2C12, 72 h
Candida albicans = assay: Antifungal activity against Candida albicans ATCC 10231 after 24 hrs by microbroth dilution method; type: functional; conditions: ATCC 10231, 24 h
Pseudomonas aeruginosa [22] = assay: Binding affinity to Pseudomonas aeruginosa DNA up to 1.4 x 10^-5 mol/L by UV-vis absorption spectra analysis
Pichia norvegensis = assay: Antifungal activity against Candida mycoderma ATCC 9888 after 24 hrs by microbroth dilution method; type: functional; conditions: ATCC 9888, 24 h
Staphylococcus aureus [23] = assay: Antibacterial activity against methicillin-resistant Staphylococcus aureus N315 after 24 hrs by microbroth dilution method; type: functional; conditions: N315, 24 h
Cyberlindnera jadinii = assay: Antifungal activity against Candida utilis ATCC 9950 after 24 hrs by microbroth dilution method; type: functional; conditions: Williopsis jadinii, ATCC 9950, 24 h
Pseudomonas aeruginosa [24] = assay: Binding affinity to Cu2+ assessed as 2:1 compound-metal complex formation at 6 x 10^-6 mol/L by fluorescence spectroscopic analysis
[25] = Cytotoxicity against MEF assessed as inhibition of cell proliferation at 10^-2 umol/L after 72 hrs by MTT assay relative to control; type: cell-based; conditions: mouse, MEF cells
[26] = Cytotoxicity against mouse C2C12 cells assessed as inhibition of cell proliferation at 10^-1 umol/L after 72 hrs by MTT assay relative to control; type: cell-based
[27] = Cytotoxicity against MEF assessed as inhibition of cell proliferation at 30 umol/L after 72 hrs by MTT assay relative to control; type: cell-based; conditions: mouse, MEF cells
[28] = Cytotoxicity against HEK293 cells assessed as inhibition of cell proliferation at 3 x 10^-1 umol/L after 72 hrs by MTT assay relative to control; type: cell-based; conditions: human
MEF = assay: Cytotoxicity against MEF assessed as inhibition of cell proliferation after 72 hrs by MTT assay; type: cell-based; conditions: Mus musculus
HEK293 = assay: Cytotoxicity against HEK293 cells assessed as inhibition of cell proliferation after 72 hrs by MTT assay; type: cell-based; conditions: Homo sapiens, HEK293, 72 h
[29] = Cytotoxicity against mouse C2C12 cells assessed as inhibition of cell proliferation at 10 umol/L after 72 hrs by MTT assay relative to control; type: cell-based
[30] = Cytotoxicity against HEK293 cells assessed as inhibition of cell proliferation at 3 x 10^2 umol/L after 72 hrs by MTT assay relative to control; type: cell-based; conditions: human
[31] = Cytotoxicity against HEK293 cells assessed as inhibition of cell proliferation at 30 umol/L after 72 hrs by MTT assay relative to control; type: cell-based; conditions: human
[32] = Cytotoxicity against MEF assessed as inhibition of cell proliferation at 3 x 10^-2 umol/L after 72 hrs by MTT assay relative to control; type: cell-based; conditions: mouse, MEF cells
[33] = Cytotoxicity against MEF assessed as inhibition of cell proliferation at 3 x 10^-1 umol/L after 72 hrs by MTT assay relative to control; type: cell-based; conditions: mouse, MEF cells
Aspergillus flavus = assay: Antifungal activity against Aspergillus flavus ATCC 204304 after 24 hrs by microbroth dilution method; type: functional; conditions: ATCC 204304, 24 h
[34] = Cytotoxicity against mouse C2C12 cells assessed as inhibition of cell proliferation at 3 x 10^-2 umol/L after 72 hrs by MTT assay relative to control; type: cell-based
Staphylococcus aureus [35] = assay: Antibacterial activity against Staphylococcus aureus ATCC 25923 after 24 hrs by microbroth dilution method; type: functional; conditions: ATCC 25923, 24 h
Salmonella enterica = assay: Antibacterial activity against Salmonella enterica ATCC 14028 after 24 hrs by microbroth dilution method; type: functional; conditions: ATCC 14028, 24 h
[36] = Cytotoxicity against HEK293 cells assessed as inhibition of cell proliferation at 3 umol/L after 72 hrs by MTT assay relative to control; type: cell-based; conditions: human
[37] = Cytotoxicity against mouse C2C12 cells assessed as inhibition of cell proliferation at 1 umol/L after 72 hrs by MTT assay relative to control; type: cell-based
[38] = Cytotoxicity against mouse C2C12 cells assessed as inhibition of cell proliferation at 30 umol/L after 72 hrs by MTT assay relative to control; type: cell-based
Saccharomyces cerevisiae = assay: Antifungal activity against Saccharomyces cerevisiae ATCC 9763 after 24 hrs by microbroth dilution method; type: functional; conditions: ATCC 9763, 24 h
[39] = Cytotoxicity against mouse C2C12 cells assessed as inhibition of cell proliferation at 3 x 10^-1 umol/L after 72 hrs by MTT assay relative to control; type: cell-based

With `Cc1ncc([N+](=O)[O-])n1CC(O)CNC1CCN(c2c(F)cc3c(=O)c(C(=O)O)cn(C4CC4)c3c2Cl)C1` (configuration not stated) the inhibition at 72 h, 100 umol/L [1] was 51.7%, the inhibition at 72 h, 0.1 umol/L [2] was 0% and the MIC (Bacillus spizizenii) was 0.25 µg/mL (≈ 0.455 µM). For the same molecule, the inhibition at 72 h, 3 µM [3] was 8.4%, the MIC (Bacillus) was 0.25 µg/mL (≈ 0.455 µM) and the inhibition at 72 h, 300 umol/L [4] was 65.5%. The inhibition at 72 h, 100 umol/L [5] was 35.8%, the inhibition at 72 h, 1 µM [6] was 0% and the inhibition at 72 h, 0.03 umol/L [7] was 1.5%. The inhibition at 72 h, 0.01 umol/L [8] was 0.1%, the inhibition at 72 h, 1 µM [9] was 5.3% and the inhibition at 72 h, 0.01 umol/L [10] was 0%. It also gave a pKa [11] of 6.48, an inhibition at 72 h, 0.1 umol/L [12] of 0.9% and an inhibition at 72 h, 10 µM [13] of 21.8%. For the same molecule, the MIC (Escherichia coli) was 2 µg/mL (≈ 3.64 µM), the Activity (Pseudomonas aeruginosa [14]) was “inactive” and the inhibition at 72 h, 100 umol/L [15] was 58.2%. The Activity (Pseudomonas aeruginosa [16]) was “Active”, the MIC (Micrococcus luteus) was 0.25 µg/mL (≈ 0.455 µM) and the inhibition at 72 h, 10 µM [17] was 22.7%. For the same molecule, the KSV (Pseudomonas aeruginosa [18]) was 7.02 L/mol, the inhibition at 72 h, 3 µM [19] was 4% and the MIC (Pseudomonas aeruginosa [20]) was 0.25 µg/mL (≈ 0.455 µM). For the same molecule, the inhibition at 72 h, 300 umol/L [21] was 58.1%, the IC50 (C2C12) was 57 µg/mL (≈ 104 µM) and the MIC (Candida albicans) was 16 µg/mL (≈ 29.1 µM). For the same molecule, the Activity (Pseudomonas aeruginosa [22]) was “Active”, the MIC (Pichia norvegensis) was 8 µg/mL (≈ 14.6 µM) and the MIC (Staphylococcus aureus [23]) was 0.25 µg/mL (≈ 0.455 µM). The MIC (Cyberlindnera jadinii) was 2 µg/mL (≈ 3.64 µM), the Activity (Pseudomonas aeruginosa [24]) was “Active” and the inhibition at 72 h, 0.01 umol/L [25] was 0%. It also gave an inhibition at 72 h, 0.1 umol/L [26] of 0%, an inhibition at 72 h, 30 µM [27] of 39.9% and an inhibition at 72 h, 0.3 umol/L [28] of 4.1%. The IC50 (MEF) was 60 µg/mL (≈ 109 µM), the IC50 (HEK293) was 126 µg/mL (≈ 230 µM) and the inhibition at 72 h, 10 µM [29] was 10.3%. For the same molecule, the inhibition at 72 h, 300 umol/L [30] was 57.9%, the inhibition at 72 h, 30 µM [31] was 25.7% and the inhibition at 72 h, 0.03 umol/L [32] was 0%. The inhibition at 72 h, 0.3 umol/L [33] was 0%, the MIC (Aspergillus flavus) was 4 µg/mL (≈ 7.29 µM) and the inhibition at 72 h, 0.03 umol/L [34] was 0%. It also gave an MIC (Staphylococcus aureus [35]) of 0.5 µg/mL (≈ 0.911 µM), an MIC (Salmonella enterica) of 0.5 µg/mL (≈ 0.911 µM) and an inhibition at 72 h, 3 µM [36] of 13%. For the same molecule, the inhibition at 72 h, 1 µM [37] was 0.7%, the inhibition at 72 h, 30 µM [38] was 22.4% and the MIC (Saccharomyces cerevisiae) was 8 µg/mL (≈ 14.6 µM). The inhibition at 72 h, 0.3 umol/L [39] was 0.3%.
